Experimental findings from patent US8999956B2, “N-[(het)arylalkyl)] pyrazole(thio)carboxamides and their heterosubstituted analogues” (Bayer Intellectual Property GmbH, priority 2010, dated 2015) are described below.

The subject of one series is Pyrenophora teres. Briefly: In vivo preventive test on Pyrenophora teres (barley). The settings on record: 500 ppm of active ingredient, evaluated 7-9 days after inoculation. How it is done: Solvent: 49 parts by weight of N,N-dimethylformamide Emulsifier: 1 part by weight of alkylaryl polyglycol ether To produce a suitable preparation of active compound, 1 part by weight of active compound is mixed with the stated amounts of solvent and emulsifier, and the concentrate is diluted with water to the desired concentration. To test for preventive activity, young plants are sprayed with the preparation of active compound at the stated rate of application. One day after this treatment, the plants are inoculated with an aqueous spore suspension of Pyrenophora teres.

Series [1] is described as follows: log P by HPLC on reversed-phase column (EEC Directive 79/831 Annex V.A8). In kind it is physicochemical. The procedure:
In table 1, the log P values were determined in accordance with EEC Directive 79/831 Annex V.A8 by HPLC (High Performance Liquid Chromatography) on a reversed-phase column (C18), using the method described below: Temperature: 40° C.; […]

In the next series the test system is Alternaria solani. Briefly: In vivo preventive test on Alternaria solani (tomato). The settings on record: 500 ppm of active ingredient, evaluated 7 days after inoculation. The procedure: Solvent: 49 parts by weight of N,N-dimethylformamide Emulsifier: 1 part by weight of Alkylarylpolyglycolether To produce a suitable preparation of active compound, 1 part by weight of active compound is mixed with the stated amounts of solvent and emulsifier, and the concentrate is diluted with water to the desired concentration. To test for preventive activity, young plants are sprayed with the preparation of active compound at the stated rate of application. One day after this treatment, the plants are inoculated with an aqueous spore suspension of Alternaria solani.

As for `CC(COc1ccccc1)NC(=O)c1c(C(F)F)nn(C)c1F` (stereo not drawn) [Example 13], the Efficacy with Pyrenophora teres is given as 94%. Also, the logP in series [1] is given as 2.66.
`Cn1nc(C(F)F)c(C(=O)NCC(Sc2ccc(Cl)cc2)C(F)(F)F)c1Cl` (stereo not drawn) [Example 47] showed an Efficacy in the series on Alternaria solani of 80%. Besides, the logP in series [1] turned out to be 3.89.
Compound `Cn1nc(C(F)F)c(C(=O)N(CCOc2ccc(-c3ccccc3)cc2)C2CC2)c1Cl` [Example 28] returned an Efficacy in the series on Pyrenophora teres of 90%. Besides, the logP in series [1] stood at 4.03.
Consider `CC(COc1ccccc1)NC(=O)c1c(C(F)F)nn(C)c1Cl` (stereo not drawn) [Example 14], for which the Efficacy in the series with Pyrenophora teres is 95%. The compound further had a logP in series [1] of 2.84.
On to `CC(COc1ccc(Cl)cc1Cl)N(C(=O)c1c(C(F)F)nn(C)c1Cl)C1CC1` (stereo not drawn) [Example 188], for which the Efficacy in the series on Alternaria solani and with Pyrenophora teres was 100% throughout. This compound also had a logP in series [1] of 4.41.
In the case of `Cn1nc(C(F)F)c(C(=O)NCC(Sc2ccc(Cl)cc2)C(F)(F)F)c1F` (stereo not drawn) [Example 46], the Efficacy with Alternaria solani and in the series on Pyrenophora teres was 100% throughout. For the same compound, the logP in series [1] was 3.73.
Regarding `Cn1nc(C(F)F)c(C(=O)NCCOc2ccc(C(F)(F)F)cc2)c1F` [Example 68], the Efficacy in the series with Pyrenophora teres stood at 80%. For the same compound, the logP in series [1] is reported as 3.04.
Consider `CC(CCc1ccccc1)NC(=O)c1c(C(F)F)nn(C)c1F` (stereo not drawn) [Example 12], for which the results for the Efficacy with Alternaria solani and with Pyrenophora teres were 95% and 100%, respectively. In addition, in series [1], the logP is given as 2.88.
For the compound `Cn1nc(C(F)F)c(C(=O)NCC2CCCC(C(F)(F)F)C2)c1F` (stereo not drawn) [Example 379], the values for the Efficacy with Alternaria solani and in the series with Pyrenophora teres were 95% and 100%, respectively. In series [1], this compound displayed a logP of 2.96.
On to `Cn1nc(C(F)F)c(C(=O)NCCOc2ccc(Oc3ccccc3)cc2)c1F` [Example 34], for which the Efficacy in the series with Alternaria solani turned out to be 90%. Moreover, the logP in series [1] stood at 3.42.
In the series with Alternaria solani, `Cn1nc(C(F)F)c(C(=O)NCCOc2ccc(Cl)cc2)c1F` [Example 48] gave an Efficacy of 90%. Further, the logP in series [1] came out at 2.78.
Take `CN(CCCc1ccccc1)C(=O)c1c(C(F)F)nn(C)c1Cl` [Example 5]: in the series with Alternaria solani, the Efficacy is 80%. In series [1], this compound yielded a logP of 2.82.
For `Cn1nc(C(F)F)c(C(=O)NC2(C3CCCCC3)CC2)c1Cl` [Example 380], the figures for the Efficacy in the series with Alternaria solani and in the series on Pyrenophora teres were 95% and 100%, respectively. In addition, the logP in series [1] came out at 3.29.
Regarding `CC(C)C(CCc1ccc(Cl)cc1)NC(=O)c1c(C(F)F)nn(C)c1F` (stereo not drawn) [Example 63], the Efficacy with Alternaria solani and in the series on Pyrenophora teres was 100% throughout. Moreover, the logP in series [1] was 3.94.
With `CC(CNC(=O)c1c(C(F)F)nn(C)c1Cl)Cc1cc(Cl)ccc1Cl` (stereo not drawn) [Example 164], the results for the Efficacy with Alternaria solani and in the series with Pyrenophora teres were 95% and 100%, respectively. The compound further displayed a logP in series [1] of 3.87.
Consider `CN(CC(NC(=O)c1c(C(F)F)nn(C)c1F)C1CC1)c1ccccc1` (stereo not drawn) [Example 17], for which the Efficacy in the series on Alternaria solani worked out at 95%. The logP in series [1] turned out to be 3.02.
Regarding `CC(CNC(=O)c1c(C(F)F)nn(C)c1Cl)Cc1ccc(Cl)c(Cl)c1` (racemic) [Example 127], the figures for the Efficacy with Alternaria solani and in the series on Pyrenophora teres were 90% and 100%, respectively. In series [1], the logP amounted to 3.87.
`Cc1cccc(OC2CCCC2NC(=O)c2c(C(F)F)nn(C)c2Cl)c1` (stereo not drawn) [Example 260] came in with an Efficacy in the series on Pyrenophora teres of 70%. This compound had a logP in series [1] of 3.78.
For `Cn1nc(C(F)F)c(C(=O)NCCOc2ccc(Oc3ccccc3)cc2)c1Cl` [Example 35], the Efficacy in the series with Pyrenophora teres was 70%. The logP in series [1] came out at 3.55.
Consider `Cc1cccc(C)c1OCC(C)N(C(=O)c1c(C(F)F)nn(C)c1Cl)C1CC1` (stereo not drawn) [Example 156], for which the values for the Efficacy in the series on Alternaria solani and in the series with Pyrenophora teres were 80% and 95%, respectively. The compound also returned a logP in series [1] of 4.15.
In turn, `CC(C)C(CCc1ccc(Cl)cc1)NC(=O)c1c(C(F)F)nn(C)c1Cl` (stereo not drawn) [Example 62] showed an Efficacy in the series on Pyrenophora teres of 80%. The logP in series [1] turned out to be 4.11.
In the case of `Cn1nc(C(F)F)c(C(=O)NC(COc2ccccc2)C2CC2)c1F` (stereo not drawn) [Example 19], the values for the Efficacy in the series with Alternaria solani and in the series on Pyrenophora teres were 95% and 89%, respectively. The compound further showed a logP in series [1] of 3.06.
With `Cn1nc(C(F)F)c(C(=O)NC2(COc3ccc(Cl)cc3)CC2)c1F` [Example 44], the Efficacy in the series on Alternaria solani is 100%. Also, in series [1], the logP worked out at 3.00.
In the case of `CC(CCc1cc(Cl)ccc1Cl)NC(=O)c1c(C(F)F)nn(C)c1Cl` (stereo not drawn) [Example 171], the Efficacy is 95% with Alternaria solani and 100% with Pyrenophora teres. Moreover, in series [1], the logP was 3.87.
In the series on Pyrenophora teres, `Cn1nc(C(F)F)c(C(=O)NC(C)(C)CCc2ccccc2Cl)c1Cl` [Example 147] displayed an Efficacy of 100%. Moreover, in series [1], the logP is 3.99.
`Cn1nc(C(F)F)c(C(=O)NC(C)(C)CCc2cccc(Cl)c2)c1F` [Example 84]: the Efficacy in the series on Alternaria solani and in the series with Pyrenophora teres was 95% throughout. In series [1], this compound showed a logP of 3.83.
As to `Cc1cccc(C)c1CC(C)CNC(=O)c1c(C(F)F)nn(C)c1Cl` (racemic) [Example 149], the Efficacy with Alternaria solani is 90%; in the series on Pyrenophora teres, 95%. The logP in series [1] was 3.63.
`CC(O)C1CCCCC1NC(=O)c1c(C(F)F)nn(C)c1F` (single isomer, unassigned) [Example 341] showed an Efficacy in the series with Alternaria solani of 80%. The logP in series [1] was determined as 1.72 isomer A.
Regarding `CC(C)OC1CCCC(NC(=O)c2c(C(F)F)nn(C)c2F)C1` (stereo not drawn) [Example 325], in the series with Alternaria solani, the Efficacy is on record as 95%. The compound further showed a logP in series [1] of 2.06.
The compound `Cn1nc(C(F)F)c(C(=O)NCCOc2cccc(Oc3ccccc3)c2)c1F` [Example 74] had an Efficacy in the series on Alternaria solani of 95%. The logP in series [1] was found to be 3.41.
Turning to `Cn1nc(C(F)F)c(C(=O)NC(C)(C)CCc2cccc(Cl)c2)c1Cl` [Example 83], the Efficacy with Alternaria solani and in the series on Pyrenophora teres was 95% each time. For the same compound, the logP in series [1] was determined as 4.01.
For the compound `CC(COc1ccccc1)N(C)C(=O)c1c(C(F)F)nn(C)c1F` (stereo not drawn) [Example 16], the Efficacy in the series with Alternaria solani and with Pyrenophora teres was 90% in each case. This compound registered a logP in series [1] of 2.62.
For the compound `Cn1nc(C(F)F)c(C(=O)NC(CSc2ccccc2)C2CC2)c1F` (stereo not drawn) [Example 22], the Efficacy with Alternaria solani stood at 95%. The compound further had a logP in series [1] of 3.25.
`Cn1nc(C(F)F)c(C(=O)NCCOc2ccc(C(F)(F)F)cc2)c1Cl` [Example 69]: the Efficacy in the series with Alternaria solani was found to be 80%. For the same compound, the logP in series [1] was determined as 3.17.
With `CN(C(=O)c1c(C(F)F)nn(C)c1Cl)C(CSCc1ccccc1)C1CC1` (stereo not drawn) [Example 224], the Efficacy in the series on Alternaria solani came to 70%. Besides, the logP in series [1] is given as 3.62.
For the compound `CCC(COc1cc(Cl)ccc1Cl)NC(=O)c1c(C(F)F)nn(C)c1Cl` (stereo not drawn) [Example 176], the Efficacy in the series with Alternaria solani stood at 80%; in the series on Pyrenophora teres it was 95%. The compound further came in with a logP in series [1] of 4.01.
With `Cn1nc(C(F)F)c(C(=O)NC2CCCC2Sc2ncccn2)c1F` (stereo not drawn) [Example 258], the Efficacy in the series on Pyrenophora teres amounted to 89%. This compound returned a logP in series [1] of 2.17.
Turning to `Cn1nc(C(F)F)c(C(=O)NCCOc2c(F)cccc2F)c1F` [Example 159], the Efficacy in the series with Alternaria solani is on record as 90%. Further, in series [1], the logP came to 2.44.
As to `Cn1nc(C(F)F)c(C(=O)NCCCc2ccc(Cl)cc2Cl)c1Cl` [Example 179], the Efficacy with Pyrenophora teres worked out at 100%. Further, in series [1], the logP was 3.68.
With `Cn1nc(C(F)F)c(C(=O)NC(C)(C)CCc2cccc(C(F)(F)F)c2)c1Cl` [Example 135], the Efficacy with Pyrenophora teres was 90%. In addition, the logP in series [1] is recorded as 4.11.
The like results for `Cn1nc(C(F)F)c(C(=O)NC2CCCCC2C(C)(C)C)c1F` (stereo not drawn) [Example 349] were, in that order, 95% and 3.79.
In turn, `Cn1nc(C(F)F)c(C(=O)NC(COc2ccc(Cl)cc2Cl)C2CC2)c1Cl` (stereo not drawn) [Example 194] came in with an Efficacy with Alternaria solani of 70%. Also, the logP in series [1] worked out at 4.18.
Turning to `CN(C(=O)c1c(C(F)F)nn(C)c1F)C(COc1ccc2ccccc2c1)C1CC1` (racemic) [Example 139], the Efficacy in the series on Pyrenophora teres came out at 90%. In series [1], this compound displayed a logP of 3.76.
In the series on Alternaria solani, `Cn1nc(C(F)F)c(C(=O)NC2(COc3ccc(Cl)cc3)CC2)c1Cl` [Example 45] came in with an Efficacy of 95%. The logP in series [1] is 3.19.
In turn, `CCC(COc1cc(OC)ccn1)NC(=O)c1c(C(F)F)nn(C)c1Cl` (stereo not drawn) [Example 43] came in with an Efficacy with Pyrenophora teres of 89%. In series [1], this compound gave a logP of 1.86.
Take `Cn1nc(C(F)F)c(C(=O)NCCOc2cc(Cl)ccc2Cl)c1Cl` [Example 170]: in the series on Alternaria solani, the Efficacy stood at 90%. The compound further registered a logP in series [1] of 3.31.
Consider `CC(CSCc1ccco1)N(C(=O)c1c(C(F)F)nn(C)c1F)C1CC1` (stereo not drawn) [Example 236], for which, in series [1], the logP came to 3.11.
For the compound `CN(CCCc1ccccc1Cl)C(=O)c1c(C(F)F)nn(C)c1Cl` [Example 141], the Efficacy in the series on Pyrenophora teres came out at 90%. In series [1], this compound returned a logP of 3.17.
As to `Cc1ccc(CCCN(C(=O)c2c(C(F)F)nn(C)c2F)C2CC2)s1` [Example 113], the logP in series [1] is on record as 3.44.
`Cn1nc(C(F)F)c(C(=O)NC(COc2ccccc2)C2CC2)c1Cl` (stereo not drawn) [Example 20] showed a logP in series [1] of 3.25.
In series [1], `C=CCC1CCCCC1N(C(=O)c1c(C(F)F)nn(C)c1Cl)C1CC1` (stereo not drawn) [Example 347] displayed a logP of 4.16.
